Data on five compounds can be found in ChEMBL document CHEMBL4411340, “Tuning Nuclear Receptor Selectivity of Wy14,643 towards Selective Retinoid X Receptor Modulation” (J Med Chem, 2019).

Converted amounts (≈) assume the structure as drawn.

Data set [1] in a line: Aqueous solubility of the compound in distilled water after 24 hrs by HPLC analysis. The note with it: for solubility: buffer, 24 h; for solubility at 24 h: distilled water. Type of data set: physicochemical.
A short description of data set [2]: Metabolic stability in Sprague-Dawley rat liver microsomes assessed as remaining parent compound level at 10 uM preincubated for 5 mins with NADPH generating system followed by liver microsomes addition and measured after 60 mins by HPLC analysis. The data set is classed as ADME, Microsome. As to conditions: read-out: Stability. (In general: Microsomes from liver hold many membrane-bound enzymes, among them those of drug oxidation.)

A short description of data set [3]: Drug uptake in C57BL6/JRj mouse plasma at 10 mg/kg, po administered as single dose and measured after 2 hrs by LS-MS analysis. The data set is classed as ADME, organism-based. The note with it: in vivo.
Data set [4] is described as follows: Drug uptake in C57BL6/JRj mouse liver at 10 mg/kg, po administered as single dose and measured after 2 hrs by LS-MS analysis. Type of data set: ADME, organism-based. As to conditions: in vivo.
Data set [5] in a line: Half life in C57BL6/JRj mouse at 10 mg/kg, po administered as single dose and measured after 2 hrs by LS-MS analysis. Type of data set: ADME, organism-based. As to conditions: in vivo.
The nature of data set [6]: Drug uptake in C57BL6/JRj mouse brain at 10 mg/kg, po administered as single dose and measured after 2 hrs by LS-MS analysis. The data set is classed as ADME, organism-based. The note with it: read-out: Drug uptake.
Data set [7] in a line: Ratio of drug uptake in C57BL6/JRj mouse brain to plasma at 10 mg/kg, po administered as single dose and measured after 2 hrs by LS-MS analysis. Type of data set: ADME, organism-based.
Data set [8] can be described thus: Log D, lipophilicity of the compound by HPLC analysis. The data set is classed as physicochemical.

By solubility is commonly meant the concentration that dissolves in the medium under given conditions. Read a high solubility as much dissolved substance. One may read the half-life as the time needed for the level to fall by half in the phase considered. Low values mean rapid decline, high ones slow decline. For `CN(c1cc(C(F)(F)F)nc(OCCC(=O)O)n1)c1cccc2c1CCC2`, the solubility entry in data set [1] is reported as “Soluble”. Moreover, in data set [2], the remaining at 1 h, 10 µM is over 50%. Besides, the Drug uptake result in data set [3] and in data set [4] was “Active” throughout. The same compound showed a half-life in data set [5] of 4.2 h. Moreover, in data set [6], the concentration at 2 h was found to be 275 ng/g. Besides, in data set [7], the BPR is 1.5%.
Take `O=C(O)CSc1nc(Cl)cc(Nc2cccc3c2CCCC3)n1`: the solubility result in data set [1] is recorded as “Soluble”. In addition, in data set [2], the remaining at 1 h, 10 µM was over 50%.
For the compound `CCCCC(Sc1nc(Cl)cc(Nc2cccc(C)c2C)n1)C(=O)O` (stereo not given), in data set [2], the remaining at 1 h, 10 µM was over 50%.
By logD is commonly meant the decadic logarithm of the distribution of all forms, ionised or not, between an organic phase and buffer at a given pH. A high value points to a more lipophilic compound. In turn, `C=C(c1ccc(C(=O)O)cc1)c1cc2c(cc1C)C(C)(C)CCC2(C)C` [BEXAROTENE] yielded a solubility at 24 h in data set [1] of 0.3 µg/mL (≈ 0.861 µM). In addition, the logD in data set [8] amounted to 4.74.
Compound `Cc1cccc(Nc2cc(Cl)nc(SCC(=O)O)n2)c1C` [PIRINIXIC ACID] showed a solubility at 24 h in data set [1] of 48.6 µg/mL (≈ 150 µM). In addition, the logD in data set [8] came to 1.63. Moreover, the remaining at 1 h, 10 µM in data set [2] is over 50%.
